Assay results published in ChEMBL document CHEMBL5154882, “Discovery of 4-Hydroxyquinazoline Derivatives as Small Molecular BET/PARP1 Inhibitors That Induce Defective Homologous Recombination and Lead to Synthetic Lethality for Triple-Negative Breast Cancer Therapy” (J Med Chem, 2022).
Active and inactive are the calls of the source. The rule behind the calls is not given here.

Experiments:
MDA-MB-231 [1] = experiment: Antitumor activity against human MDA-MB-231 cells xenografted in BALB/c nude mouse assessed as downregulation of CtIP at 80 mg/kg by Western blot analysis; assay type: functional, organism-based
MDA-MB-231 [2] = experiment: Antitumor activity against human MDA-MB-231 cells xenografted in BALB/c nude mouse assessed as tumor growth inhibition at 80 mg/kg incubated for 30 to 40 mins by Ki-67 staining based immunohistochemical analysis; assay type: functional, organism-based; settings: time 30-40 min
[3] = Toxicity in BALB/c nude mouse xenografted with human MDA-MB-468 cells assessed as morphological changes in heart at 80 mg/kg, ig administered daily for 16 days measured every 3 days by hematoxyin-eosin staining based analysis; assay type: organism-based; settings: in vivo, po, 384 h, time 16 day
[4] = Toxicity in BALB/c nude mouse xenografted with human MDA-MB-468 cells assessed as morphological changes in lung at 80 mg/kg, ig administered daily for 16 days measured every 3 days by hematoxyin-eosin staining based analysis; assay type: organism-based; settings: in vivo, po, 384 h, time 16 day
MDA-MB-231 [5] = experiment: Antitumor activity against human MDA-MB-231 cells xenografted in BALB/c nude mouse assessed as downregulation of c-Myc at 80 mg/kg by Western blot analysis; assay type: functional, organism-based
MDA-MB-231 [6] = experiment: Antitumor activity against human MDA-MB-231 cells xenografted in BALB/c nude mouse assessed as downregulation of Rad51 at 80 mg/kg by Western blot analysis; assay type: functional, organism-based
[7] = Toxicity in BALB/c nude mouse xenografted with human MDA-MB-468 cells assessed as morphological changes in kidney at 80 mg/kg, ig administered daily for 16 days measured every 3 days by hematoxyin-eosin staining based analysis; assay type: organism-based; settings: in vivo, po, 384 h, time 16 day
[8] = biological target: T1, Poly [ADP-ribose] polymerase 1 (Homo sapiens, UniProt P09874); experiment: Inhibition of PARP1 (unknown origin) at 1 uM relative to control
T1 sequence (P09874 whole entry): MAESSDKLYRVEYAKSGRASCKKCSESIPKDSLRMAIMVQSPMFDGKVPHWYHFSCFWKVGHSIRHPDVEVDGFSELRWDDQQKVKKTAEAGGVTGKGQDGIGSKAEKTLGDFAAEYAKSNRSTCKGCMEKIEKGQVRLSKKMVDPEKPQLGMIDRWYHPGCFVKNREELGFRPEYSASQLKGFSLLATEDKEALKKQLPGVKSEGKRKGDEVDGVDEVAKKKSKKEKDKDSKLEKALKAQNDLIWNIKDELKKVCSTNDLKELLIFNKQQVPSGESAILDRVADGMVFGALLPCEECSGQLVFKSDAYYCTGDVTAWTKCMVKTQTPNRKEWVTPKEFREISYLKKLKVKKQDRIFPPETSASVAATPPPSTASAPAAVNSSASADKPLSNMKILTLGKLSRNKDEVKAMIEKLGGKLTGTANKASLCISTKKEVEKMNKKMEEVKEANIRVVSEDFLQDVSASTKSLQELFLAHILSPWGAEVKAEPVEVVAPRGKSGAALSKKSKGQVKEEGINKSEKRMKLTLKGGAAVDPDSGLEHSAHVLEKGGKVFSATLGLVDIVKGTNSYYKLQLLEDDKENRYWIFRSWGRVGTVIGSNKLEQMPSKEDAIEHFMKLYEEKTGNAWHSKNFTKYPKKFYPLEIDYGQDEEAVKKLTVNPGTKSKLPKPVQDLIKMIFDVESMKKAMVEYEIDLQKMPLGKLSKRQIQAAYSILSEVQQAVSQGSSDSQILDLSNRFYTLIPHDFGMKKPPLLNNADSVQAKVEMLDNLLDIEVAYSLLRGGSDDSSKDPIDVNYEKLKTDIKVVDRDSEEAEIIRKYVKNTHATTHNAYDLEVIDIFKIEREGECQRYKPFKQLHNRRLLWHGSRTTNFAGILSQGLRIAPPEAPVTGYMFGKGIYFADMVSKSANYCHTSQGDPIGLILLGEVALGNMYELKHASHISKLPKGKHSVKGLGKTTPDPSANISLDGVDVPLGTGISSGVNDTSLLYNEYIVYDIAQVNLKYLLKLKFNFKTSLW

[9] = biological target: Bromodomain-containing protein 4 (Homo sapiens, UniProt O60885); experiment: Inhibition of BRD4 (unknown origin) at 1 uM relative to control
[10] = Toxicity in BALB/c nude mouse xenografted with human MDA-MB-468 cells assessed as morphological changes in heart at 40 to 80 mg/kg, ig administered daily for 16 days measured every 3 days by hematoxyin-eosin staining based analysis; assay type: organism-based; settings: in vivo, po, 384 h, dose 40-80 mg/kg, time 16 day
[11] = Toxicity in BALB/c nude mouse xenografted with human MDA-MB-468 cells assessed as death at 80 mg/kg, ig administered daily for 16 days measured every 3 days; assay type: organism-based; settings: in vivo, po, 384 h, time 16 day
[12] = Toxicity in BALB/c nude mouse xenografted with human MDA-MB-468 cells assessed as morphological changes in spleen at 40 to 80 mg/kg, ig administered daily for 16 days measured every 3 days by hematoxyin-eosin staining based analysis; assay type: organism-based; settings: in vivo, po, 384 h, dose 40-80 mg/kg, time 16 day
[13] = Toxicity in BALB/c nude mouse xenografted with human MDA-MB-468 cells assessed as morphological changes in spleen at 80 mg/kg, ig administered daily for 16 days measured every 3 days by hematoxyin-eosin staining based analysis; assay type: organism-based; settings: in vivo, po, 384 h, time 16 day
MDA-MB-231 [14] = experiment: Antitumor activity against human MDA-MB-231 cells xenografted in BALB/c nude mouse assessed as reduction in CtIp expression at 80 mg/kg incubated for 30 to 40 mins by immunohistochemical analysis; assay type: functional, organism-based; settings: time 30-40 min
MDA-MB-231 [15] = experiment: Antitumor activity against human MDA-MB-231 cells xenografted in BALB/c nude mouse assessed as reduction in Rad51 expression at 80 mg/kg incubated for 30 to 40 mins by immunohistochemical analysis; assay type: functional, organism-based; settings: time 30-40 min
[16] = biological target: T1, Poly [ADP-ribose] polymerase 1; experiment: Inhibition of PARP1 (unknown origin) using NAD+ as substrate incubated for 60 mins by ELISA
MDA-MB-231 [17] = experiment: Antitumor activity against human MDA-MB-231 cells xenografted in BALB/c nude mouse assessed as downregulation of PAR at 80 mg/kg by Western blot analysis; assay type: functional, organism-based
MDA-MB-231 [18] = experiment: Antitumor activity against human MDA-MB-231 cells xenografted in BALB/c nude mouse assessed as reduction in PAR expression at 80 mg/kg incubated for 30 to 40 mins by immunohistochemical analysis; assay type: functional, organism-based; settings: time 30-40 min
MDA-MB-231 [19] = experiment: Antitumor activity against human MDA-MB-231 cells xenografted in BALB/c nude mouse assessed as reduction in c-Myc expression at 80 mg/kg incubated for 30 to 40 mins by immunohistochemical analysis; assay type: functional, organism-based; settings: time 30-40 min
[20] = Toxicity in BALB/c nude mouse xenografted with human MDA-MB-468 cells assessed as morphological changes in kidney at 40 to 80 mg/kg, ig administered daily for 16 days measured every 3 days by hematoxyin-eosin staining based analysis; assay type: organism-based; settings: in vivo, po, 384 h, dose 40-80 mg/kg, time 16 day
MDA-MB-231 [21] = experiment: Antiproliferative activity against human MDA-MB-231 cells assessed as reduction in cell viability incubated for 72 hrs by MTT assay; assay type: functional, cell-based; settings: MDA-MB-231, 72 h
[22] = Toxicity in BALB/c nude mouse xenografted with human MDA-MB-468 cells assessed as change in body weight at 80 mg/kg, ig administered daily for 16 days measured every 3 days; assay type: organism-based; settings: in vivo, po, 384 h, time 16 day
[23] = Toxicity in BALB/c nude mouse xenografted with human MDA-MB-468 cells assessed as change in body weight at 40 to 80 mg/kg, ig administered daily for 16 days measured every 3 days; assay type: organism-based; settings: in vivo, po, 384 h, dose 40-80 mg/kg, time 16 day
MDA-MB-468 [24] = experiment: Antitumor activity against human MDA-MB-468 cells xenografted in BALB/c nude mouse model assessed as tumor growth inhibition at 80 mg/kg, ig administered daily for 16 days measured every 3 days relative to control; assay type: functional; settings: MDA-MB-468, po, 384 h, time 16 day, read-out: TGI
[25] = Toxicity in BALB/c nude mouse xenografted with human MDA-MB-468 cells assessed as morphological changes in lung at 40 to 80 mg/kg, ig administered daily for 16 days measured every 3 days by hematoxyin-eosin staining based analysis; assay type: organism-based; settings: in vivo, po, 384 h, dose 40-80 mg/kg, time 16 day
MDA-MB-468 [26] = experiment: Antiproliferative activity against human MDA-MB-468 cells assessed as reduction in cell viability incubated for 72 hrs by MTT assay; assay type: functional, cell-based; settings: MDA-MB-468, 72 h
[27] = Toxicity in BALB/c nude mouse xenografted with human MDA-MB-468 cells assessed as death at 40 to 80 mg/kg, ig administered daily for 16 days measured every 3 days; assay type: organism-based; settings: in vivo, po, 384 h, dose 40-80 mg/kg, time 16 day
[28] = Toxicity in BALB/c nude mouse xenografted with human MDA-MB-468 cells assessed as morphological changes in liver at 80 mg/kg, ig administered daily for 16 days measured every 3 days by hematoxyin-eosin staining based analysis; assay type: organism-based; settings: in vivo, po, 384 h, time 16 day
[29] = Toxicity in BALB/c nude mouse xenografted with human MDA-MB-468 cells assessed as morphological changes in liver at 40 to 80 mg/kg, ig administered daily for 16 days measured every 3 days by hematoxyin-eosin staining based analysis; assay type: organism-based; settings: in vivo, po, 384 h, dose 40-80 mg/kg, time 16 day
MDA-MB-231 [30] = experiment: Induction of DNA damage in human MDA-MB-231 cells assessed as increase in tail DNA measured at 1 uM after 3 days by comet assay; assay type: functional, cell-based; settings: time 3.0 day
MDA-MB-468 [31] = experiment: Cell cycle arrest in human MDA-MB-468 cells assessed as accumulation at G0/G1 phase incubated for 72 hrs in presence of olaparib by propidium iodide staining-based flow cytometry analysis (reference value: 61.4%); assay type: functional
MDA-MB-468 [32] = experiment: Induction of apoptosis in human MDA-MB-468 cells assessed as up-regulation of Bax protein level at incubated for 72 hrs in presence of olaparib by Western blot analysis; assay type: functional, cell-based
MDA-MB-468 [33] = experiment: Synergistic antiproliferative activity against human MDA-MB-468 cells at compound to Olaparib ratio of 1:3; assay type: functional, cell-based
MDA-MB-468 [34] = experiment: Induction of apoptosis in human MDA-MB-468 cells assessed as early apoptotic cells at 1 uM incubated for 72 hrs in presence of olaparib by annexin V/propidium iodide staining-based flow cytometry analysis (reference value: 4.07%); assay type: functional
MDA-MB-468 [35] = experiment: Induction of DNA damage in human MDA-MB-468 cells assessed as up-regulation of gammaH2AX expression level at 1 uM in presence of olaparib by DAPI staining based immunofluorescence assay; assay type: functional, cell-based
MDA-MB-231 [36] = experiment: Induction of DNA damage in human MDA-MB-231 cells assessed as increase in tail DNA at 1 uM measured after 3 days in presence of olaparib by comet assay; assay type: functional, cell-based; settings: time 3.0 day
MDA-MB-468 [37] = experiment: Cell cycle arrest in human MDA-MB-468 cells assessed as accumulation at S phase incubated for 72 hrs in presence of olaparib by propidium iodide staining-based flow cytometry analysis (Rvb=16.1%); assay type: functional
MDA-MB-468 [38] = experiment: Cell cycle arrest in human MDA-MB-468 cells assessed as accumulation at S phase incubated for 72 hrs in presence of olaparib by propidium iodide staining-based flow cytometry analysis (reference value: 21.1%); assay type: functional
MDA-MB-468 [39] = experiment: Induction of apoptosis in human MDA-MB-468 cells assessed as up-regulation of cleaved caspase 3 protein level incubated for 72 hrs in presence of olaparib by Western blot analysis; assay type: functional, cell-based
MDA-MB-468 [40] = experiment: Induction of apoptosis in human MDA-MB-468 cells assessed as downregulation of Bcl-2 protein level incubated for 72 hrs in presence of olaparib by Western blot analysis; assay type: functional, cell-based
MDA-MB-468 [41] = experiment: Induction of apoptosis in human MDA-MB-468 cells assessed as late apoptotic cells at 1 uM incubated for 72 hrs in presence of olaparib by annexin V/propidium iodide staining-based flow cytometry analysis (reference value: 1.34%); assay type: functional
MDA-MB-468 [42] = experiment: Induction of DNA damage in human MDA-MB-468 cells assessed as up-regulation of gammaH2AX expression level at 1 uM incubated for 60 mins by DAPI staining based immunofluorescence assay; assay type: functional, cell-based

COc1cc(OC)c2c(=O)[nH]c(-c3cc(C)c(OCCOc4ccccc4C(N)=O)c(C)c3)nc2c1
Activity (MDA-MB-231 [1]): Active | Activity (MDA-MB-231 [2]): Active | Activity [3]: Non-Toxic | Activity [4]: Non-Toxic | Activity (MDA-MB-231 [5]): Active | Activity (MDA-MB-231 [6]): Active | Activity [7]: Non-Toxic | inhibition [8]: 35.9% | inhibition [9]: 66.2% | Activity [10]: Non-Toxic | Activity [11]: Non-Toxic | Activity [12]: Non-Toxic | Activity [13]: Non-Toxic | Activity (MDA-MB-231 [14]): Active | Activity (MDA-MB-231 [15]): Active | IC50 [16]: 0.0046 µM | Activity (MDA-MB-231 [17]): Active | Activity (MDA-MB-231 [18]): Active | Activity (MDA-MB-231 [19]): Active | Activity [20]: Non-Toxic | IC50 (MDA-MB-231 [21]): 15.6 µM | Activity [22]: Non-Toxic | Activity [23]: Non-Toxic | inhibition in vivo at 80 mg/kg (MDA-MB-468 [24]): 62.5% | Activity [25]: Non-Toxic | IC50 (MDA-MB-468 [26]): 6.42 µM | Activity [27]: Non-Toxic | Activity [28]: Non-Toxic | Activity [29]: Non-Toxic

Cc1sc2c(c1C)C(c1ccc(Cl)cc1)=NC(CC(=O)OC(C)(C)C)c1nnc(C)n1-2 (configuration not stated)
Activity (MDA-MB-231 [30]): Active | Activity (MDA-MB-468 [31]): 58.9% | Activity (MDA-MB-468 [32]): Active | Activity (MDA-MB-468 [33]): Active | Activity (MDA-MB-468 [34]): 30.72% | Activity (MDA-MB-468 [35]): Active | Activity (MDA-MB-231 [36]): Active | Activity (MDA-MB-468 [37]): 12.8% | Activity (MDA-MB-468 [38]): 27.9% | Activity (MDA-MB-468 [39]): Active | Activity (MDA-MB-468 [40]): Active | Activity (MDA-MB-468 [41]): 7.3% | Activity (MDA-MB-468 [42]): Active
